{"source": "paper PMC9416303", "about": "“Two New Picoline-Derived Meroterpenoids with Anti-Acetylcholinesterase Activity from Ascidian-Derived Fungus Amphichorda felina” (Molecules, 2022)", "target": "acetylcholinesterase (AChE) (Electrophorus electricus, UniProt O42275)", "sequence (O42275 24-633)": "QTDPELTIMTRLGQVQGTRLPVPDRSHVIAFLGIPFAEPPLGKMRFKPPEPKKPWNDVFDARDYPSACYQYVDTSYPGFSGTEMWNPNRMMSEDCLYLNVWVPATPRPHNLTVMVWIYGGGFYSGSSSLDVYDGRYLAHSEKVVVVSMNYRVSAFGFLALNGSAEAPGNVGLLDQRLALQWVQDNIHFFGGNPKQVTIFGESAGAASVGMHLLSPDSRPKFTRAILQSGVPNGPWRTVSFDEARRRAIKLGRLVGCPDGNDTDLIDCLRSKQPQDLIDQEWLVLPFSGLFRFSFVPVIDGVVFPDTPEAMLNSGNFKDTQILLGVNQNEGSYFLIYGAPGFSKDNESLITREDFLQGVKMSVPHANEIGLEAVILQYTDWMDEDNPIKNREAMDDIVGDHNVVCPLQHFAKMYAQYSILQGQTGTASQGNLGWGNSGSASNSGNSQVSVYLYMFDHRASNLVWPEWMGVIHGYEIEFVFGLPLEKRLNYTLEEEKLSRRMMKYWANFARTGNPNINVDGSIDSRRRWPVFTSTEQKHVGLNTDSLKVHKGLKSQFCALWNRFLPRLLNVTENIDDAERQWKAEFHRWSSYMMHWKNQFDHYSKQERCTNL", "experiment": "modified Ellman's colorimetric assay, commercial AChE (Sigma C3389)", "type": "biochemical"}
{"smiles": "C[C@H]1COC(c2cc3c(cn2)OC(C)(C)[C@H](O)C3)=CC1=O", "note": "[compound 1, Amphichoterpenoid D]", "values": [{"measurement": "IC50", "result": 12.5, "unit": "µM"}]}
{"smiles": "C[C@@H]1COC(c2cc3c(cn2)OC(C)(C)[C@H](O)C3)=CC1=O", "note": "[compound 2, Amphichoterpenoid E]", "values": [{"measurement": "IC50", "result": 11.6, "unit": "µM"}]}
